Results from the NIST ThermoML archive (doi:10.1021/je800609u).

Assays:
[1] = osmotic coefficient (dimensionless); mn = molality of the nth substance listed, in mol/kg; details: Liquid, vapor pressure osmometery method
[2] = refractive index (Na D-line) (dimensionless); mn = molality of the nth substance listed, in mol/kg; details: 101 kPa, Liquid

CCCCn1cc[n+](C)c1.[Cl-] [1-butyl-3-methylimidazolium chloride] + O
Details | osmotic coefficient, 298.15 K | osmotic coefficient, 308.15 K | osmotic coefficient, 318.15 K | osmotic coefficient, 328.15 K | refractive index, 298.15 K | refractive index, 308.15 K | refractive index, 318.15 K | refractive index, 328.15 K
[1], m1 = 0.0105 | 1 | 0.948 | 0.958 | 0.978 | – | – | – | –
[1], m1 = 0.023 | 0.958 | 0.929 | 0.932 | 0.939 | – | – | – | –
[1], m1 = 0.0289 | 0.932 | 0.924 | 0.935 | 0.938 | – | – | – | –
[1], m1 = 0.0398 | 0.892 | 0.911 | 0.916 | 0.921 | – | – | – | –
[1], m1 = 0.0621 | 0.855 | 0.866 | 0.881 | 0.906 | – | – | – | –
[1], m1 = 0.0803 | 0.833 | 0.861 | 0.869 | 0.873 | – | – | – | –
[1], m1 = 0.0986 | 0.827 | 0.864 | 0.865 | 0.867 | – | – | – | –
[1], m1 = 0.1413 | 0.814 | 0.844 | 0.857 | 0.862 | – | – | – | –
[1], m1 = 0.1816 | 0.789 | 0.817 | 0.823 | 0.832 | – | – | – | –
[1], m1 = 0.2223 | 0.779 | 0.794 | 0.807 | 0.822 | – | – | – | –
[1], m1 = 0.2764 | 0.772 | 0.79 | 0.797 | 0.81 | – | – | – | –
[1], m1 = 0.3386 | 0.768 | 0.779 | 0.798 | 0.803 | – | – | – | –
[1], m1 = 0.371 | 0.764 | 0.775 | 0.784 | 0.79 | – | – | – | –
[1], m1 = 0.4863 | 0.735 | 0.747 | 0.762 | 0.775 | – | – | – | –
[1], m1 = 0.599 | 0.718 | 0.738 | 0.75 | 0.759 | – | – | – | –
[1], m1 = 0.7152 | 0.716 | 0.731 | 0.748 | 0.755 | – | – | – | –
[1], m1 = 0.9754 | 0.699 | 0.709 | 0.723 | 0.733 | – | – | – | –
[1], m1 = 1.492 | 0.686 | 0.692 | 0.713 | 0.719 | – | – | – | –
[1], m1 = 2 | 0.686 | 0.694 | 0.706 | 0.721 | – | – | – | –
[1], m1 = 2.962 | 0.711 | 0.721 | 0.729 | 0.744 | – | – | – | –
[2], m1 = 0.0105 | – | – | – | – | 1.333 | 1.3317 | 1.3292 | 1.3273
[2], m1 = 0.023 | – | – | – | – | 1.3334 | 1.332 | 1.3295 | 1.3275
[2], m1 = 0.0289 | – | – | – | – | 1.3335 | 1.3323 | 1.3296 | 1.3277
[2], m1 = 0.0398 | – | – | – | – | 1.334 | 1.3326 | 1.33 | 1.328
[2], m1 = 0.0621 | – | – | – | – | 1.3343 | 1.333 | 1.3305 | 1.3288
[2], m1 = 0.0803 | – | – | – | – | 1.3349 | 1.3336 | 1.331 | 1.329
[2], m1 = 0.0986 | – | – | – | – | 1.3354 | 1.3341 | 1.3312 | 1.3297
[2], m1 = 0.1413 | – | – | – | – | 1.3366 | 1.3351 | 1.3325 | 1.3309
[2], m1 = 0.1816 | – | – | – | – | 1.3377 | 1.3363 | 1.3338 | 1.3319
[2], m1 = 0.2223 | – | – | – | – | 1.3388 | 1.3373 | 1.3346 | 1.3331
[2], m1 = 0.2764 | – | – | – | – | 1.3404 | 1.3389 | 1.3362 | 1.3343
[2], m1 = 0.3386 | – | – | – | – | 1.3419 | 1.3403 | 1.3377 | 1.3358
[2], m1 = 0.371 | – | – | – | – | 1.3428 | 1.3416 | 1.3387 | 1.3369
[2], m1 = 0.4863 | – | – | – | – | 1.3457 | 1.3441 | 1.3415 | 1.3398
[2], m1 = 0.599 | – | – | – | – | 1.3484 | 1.3469 | 1.3442 | 1.3422
[2], m1 = 0.7152 | – | – | – | – | 1.3512 | 1.3497 | 1.3467 | 1.3449
[2], m1 = 0.9754 | – | – | – | – | 1.3571 | 1.3562 | 1.3528 | 1.3508
[2], m1 = 1.492 | – | – | – | – | 1.3679 | 1.3661 | 1.3631 | 1.3611
[2], m1 = 2 | – | – | – | – | 1.3774 | 1.3754 | 1.3723 | 1.3703
[2], m1 = 2.962 | – | – | – | – | 1.3923 | 1.3904 | 1.3872 | 1.3849

CCCCn1cc[n+](C)c1.[I-] [1-butyl-3-methylimidazolium iodide] + O
Details | osmotic coefficient, 298.15 K | osmotic coefficient, 308.15 K | osmotic coefficient, 318.15 K | osmotic coefficient, 328.15 K | refractive index, 298.15 K | refractive index, 308.15 K | refractive index, 318.15 K | refractive index, 328.15 K
[1], m1 = 0.0133 | 0.833 | 0.856 | 0.899 | 0.91 | – | – | – | –
[1], m1 = 0.0293 | 0.821 | 0.843 | 0.888 | 0.889 | – | – | – | –
[1], m1 = 0.0442 | 0.792 | 0.821 | 0.88 | 0.885 | – | – | – | –
[1], m1 = 0.0505 | 0.784 | 0.814 | 0.869 | 0.878 | – | – | – | –
[1], m1 = 0.0786 | 0.766 | 0.788 | 0.845 | 0.861 | – | – | – | –
[1], m1 = 0.0995 | 0.761 | 0.78 | 0.819 | 0.833 | – | – | – | –
[1], m1 = 0.1307 | 0.751 | 0.765 | 0.782 | 0.807 | – | – | – | –
[1], m1 = 0.1782 | 0.711 | 0.734 | 0.758 | 0.778 | – | – | – | –
[1], m1 = 0.216 | 0.697 | 0.714 | 0.74 | 0.768 | – | – | – | –
[1], m1 = 0.3257 | 0.644 | 0.662 | 0.706 | 0.715 | – | – | – | –
[1], m1 = 0.4065 | 0.613 | 0.645 | 0.682 | 0.69 | – | – | – | –
[1], m1 = 0.5184 | 0.596 | 0.626 | 0.644 | 0.662 | – | – | – | –
[1], m1 = 0.6452 | 0.564 | 0.581 | 0.61 | 0.619 | – | – | – | –
[1], m1 = 0.7509 | 0.554 | 0.566 | 0.574 | 0.586 | – | – | – | –
[1], m1 = 0.8786 | 0.528 | 0.553 | 0.558 | 0.569 | – | – | – | –
[1], m1 = 1.154 | 0.47 | 0.501 | 0.521 | 0.528 | – | – | – | –
[1], m1 = 1.837 | 0.405 | 0.413 | 0.429 | 0.45 | – | – | – | –
[1], m1 = 2.589 | 0.362 | 0.38 | 0.387 | 0.408 | – | – | – | –
[2], m1 = 0.0133 | – | – | – | – | 1.3331 | 1.3321 | 1.3305 | 1.3285
[2], m1 = 0.0293 | – | – | – | – | 1.3336 | 1.3325 | 1.331 | 1.3289
[2], m1 = 0.0442 | – | – | – | – | 1.3343 | 1.333 | 1.3316 | 1.3293
[2], m1 = 0.0505 | – | – | – | – | 1.3346 | 1.3334 | 1.3317 | 1.3298
[2], m1 = 0.0786 | – | – | – | – | 1.3356 | 1.3344 | 1.3328 | 1.331
[2], m1 = 0.0995 | – | – | – | – | 1.3365 | 1.3353 | 1.3336 | 1.3315
[2], m1 = 0.1307 | – | – | – | – | 1.3376 | 1.3363 | 1.3347 | 1.3329
[2], m1 = 0.1782 | – | – | – | – | 1.3395 | 1.3381 | 1.3364 | 1.3347
[2], m1 = 0.216 | – | – | – | – | 1.341 | 1.3397 | 1.338 | 1.3359
[2], m1 = 0.3257 | – | – | – | – | 1.3449 | 1.3435 | 1.3418 | 1.3404
[2], m1 = 0.4065 | – | – | – | – | 1.3478 | 1.3467 | 1.3447 | 1.3433
[2], m1 = 0.5184 | – | – | – | – | 1.3519 | 1.3503 | 1.3487 | 1.3464
[2], m1 = 0.6452 | – | – | – | – | 1.356 | 1.3548 | 1.3529 | 1.3507
[2], m1 = 0.7509 | – | – | – | – | 1.3595 | 1.358 | 1.3561 | 1.3541
[2], m1 = 0.8786 | – | – | – | – | 1.3635 | 1.362 | 1.36 | 1.3578
[2], m1 = 1.154 | – | – | – | – | 1.3714 | 1.3701 | 1.368 | 1.3657
[2], m1 = 1.837 | – | – | – | – | 1.3893 | 1.3876 | 1.3853 | 1.3831
[2], m1 = 2.589 | – | – | – | – | 1.4054 | 1.4035 | 1.4012 | 1.3986
